What was measured:
[1] = system: KLH-induced DTH ear swelling in rats; assay: Example 10: Maximal effective dose in KLH-induced DTH model; format: in vivo, rat (Lewis)
Experimental: (§1) Healthy male Lewis rats aged 8-9 weeks were immunized on day 0 with 200 μL keyhole limpet hemocyanin (KLH) (from Sigma, cat.no. H7017) (4 mg/mL) emulsified in complete Freund's adjuvant (CFA) (Difco, cat.no. 263810) subcutaneously (SC) at the base of the tail.
(§2) To elicit a KLH-specific T cell-mediated local inflammation, rats were challenged intradermally at indicated timepoints (days 7, 9, 11 or 13 post-immunisation) with 40 μL KLH/NaCl 0.9% (2 mg/mL) in the left ear. Ear edemas were measured after 24-48 hrs and the right ear that was left untreated served as control. A schematic overview of the protocol is depicted in FIG. 1. […]
(§3) This study was conducted as described in example 8 with the difference that the rats were only challenged intradermally at days 7 or 11 post-immunisation (i.e. day 1 and day 5 after treatment) with 40 μL KLH/NaCl 0.9% (2 mg/mL) in the left ear. A schematic overview of the protocol is depicted in FIG. 5.
The doses of Kv1.3 inhibitor treatment able to reduce the DTH ear swelling response was investigated by comparing the response in rats (n=8/group) treated with vehicle to that of rats treated with different doses of peptide 100. Vehicle or peptide 100 dissolved in vehicle was administered SC (2 mL/kg) on day 6 post-immunisation. The test dose of Kv1.3 inhibitor was 10, 100, 300 or 700 nmol/kg. Test vehicle was 10 mM phosphate, 0.8% w/v NaCl, 0.05% w/v polysorbate20, pH 6.
As readout of efficacy, the thickness of the induced ear 24 hrs and 48 hrs after respective ear challenge was measured and compared to vehicle control. Ear thickness 24 hrs after challenge is shown in Table 13 and FIG. 6 and ear thickness 48 hrs after challenge is shown in Table 14 and FIG. 7.

[2] = system: T-cell activation in rat whole blood; assay: Example 4: IL-17A release in thapsigargin stimulated rat whole blood; format: cell-based, rat (Lewis or Sprague-Dawley); details: 24 Hr, at least 2 replicates, unit inferred, read-out: IC50 (inhibition of IL-17A release)
Outline: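 Heparinised whole blood from naïve Lewis or Sprague-Dawley rats preincubated ≥5 min at RT with peptide, then stimulated with thapsigargin (40 μM stock added as one quarter of well volume) for 24 h at 37 °C. Supernatant IL-17A measured by ELISA; IC50 from curves normalised to stimulated and unstimulated controls, ≥2 replicates.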

[3] = system: KLH-induced DTH ear swelling in rats; assay: Example 11: Minimal effective dose in KLH-induced DTH model; format: in vivo, rat (Lewis)
Experimental: as §1, §2, §3
The doses of Kv1.3 inhibitor treatment able to reduce the DTH ear swelling response was investigated by comparing the response in rats (n=8/group) treated with vehicle to that of rats treated with different doses of peptide 100. Vehicle or peptide 100 dissolved in vehicle was administered SC (2 mL/kg) on day 6. The test dose of Kv1.3 inhibitor was 1, 3, 10, 30 or 100 nmol/kg. Test vehicle was 10 mM phosphate, 0.8% w/v NaCl, 0.05% w/v polysorbate20, pH 6.
As readout of efficacy, the thickness of the induced ear 24 hrs and 48 hrs after respective ear challenge was measured and compared to vehicle control. Ear thickness 24 hrs after challenge is shown in Table 15 and FIG. 8 and ear thickness 48 hrs after challenge is shown in Table 16 and FIG. 9.

[4] = 24 hrs post-challenge, day 2 post-treatment, 100 nmol/kg SC
[5] = 24 hrs post-challenge, day 6 post-treatment, 10 nmol/kg SC
[6] = 24 hrs post-challenge, day 6 post-treatment, 100 nmol/kg SC
[7] = 48 hrs post-challenge, day 3 post-treatment, 100 nmol/kg SC
[8] = 48 hrs post-challenge, day 7 post-treatment, 10 nmol/kg SC
[9] = 48 hrs post-challenge, day 7 post-treatment, 100 nmol/kg SC

## H-P[Nle]E[Nle]RC(1)SASVEC(2)KQKC(3)LAAIGSIFGKC(1)[Nle]NKKC(2)KC(3)YPR-OH [Peptide 100]
[1]; 10 nmol/kg s.c., challenge day 11, 24 hrs post-challenge, vehicle 0.848, p=0.0495
  Mean ear thickness of KLH-induced ear: 0.807±0.025 mm
[1]; 10 nmol/kg s.c., challenge day 11, 48 hrs post-challenge, vehicle 0.819, p=0.0009
  Mean ear thickness of KLH-induced ear: 0.761±0.025 mm
[1]; 100 nmol/kg s.c., challenge day 11, 24 hrs post-challenge, vehicle 0.848, p=0.0015
  Mean ear thickness of KLH-induced ear: 0.777±0.019 mm
[1]; 100 nmol/kg s.c., challenge day 11, 48 hrs post-challenge, vehicle 0.819, p<0.0001
  Mean ear thickness of KLH-induced ear: 0.713±0.034 mm
[1]; 300 nmol/kg s.c., challenge day 11, 24 hrs post-challenge, vehicle 0.848, p=0.0005
  Mean ear thickness of KLH-induced ear: 0.772±0.009 mm
[1]; 300 nmol/kg s.c., challenge day 11, 48 hrs post-challenge, vehicle 0.819, p<0.0001
  Mean ear thickness of KLH-induced ear: 0.684±0.016 mm
[1]; 700 nmol/kg s.c., challenge day 11, 24 hrs post-challenge, vehicle 0.848, p=0.0007
  Mean ear thickness of KLH-induced ear: 0.771±0.018 mm
[1]; 700 nmol/kg s.c., challenge day 11, 48 hrs post-challenge, vehicle 0.819, p<0.0001
  Mean ear thickness of KLH-induced ear: 0.671±0.011 mm
[1]; [4]
  Mean ear thickness of KLH-induced ear: 0.704 mm
[1]; [5]
  Mean ear thickness of KLH-induced ear: 0.807 mm
[1]; [6]
  Mean ear thickness of KLH-induced ear: 0.777 mm
[1]; 24 hrs post-challenge, day 6 post-treatment, 300 nmol/kg SC
  Mean ear thickness of KLH-induced ear: 0.772 mm
[1]; 24 hrs post-challenge, day 6 post-treatment, 700 nmol/kg SC
  Mean ear thickness of KLH-induced ear: 0.771 mm
[1]; [7]
  Mean ear thickness of KLH-induced ear: 0.652 mm
[1]; [8]
  Mean ear thickness of KLH-induced ear: 0.761 mm
[1]; [9]
  Mean ear thickness of KLH-induced ear: 0.713 mm
[1]; 48 hrs post-challenge, day 7 post-treatment, 300 nmol/kg SC
  Mean ear thickness of KLH-induced ear: 0.684 mm
[1]; 48 hrs post-challenge, day 7 post-treatment, 700 nmol/kg SC
  Mean ear thickness of KLH-induced ear: 0.671 mm
[1]; KLH-induced DTH model, s.c.
  dose with which a maximal effect is obtained: 300 nmol/kg
[1]; s.c. day 6, dose not given, challenge day 7, 24 hrs post-challenge, vehicle 0.721, p=0.1216
  Mean ear thickness of KLH-induced ear: 0.704±0.018 mm
[1]; s.c. day 6, dose not given, challenge day 7, 48 hrs post-challenge, vehicle 0.694, p=0.0008
  Mean ear thickness of KLH-induced ear: 0.652±0.026 mm
[2]
  IC50: 0.43 nM
[3]; 1 nmol/kg s.c., challenge day 11, 24 hrs post-challenge, vehicle 0.902, p=0.0872
  Mean ear thickness of KLH-induced ear: 0.872±0.037 mm
[3]; 1 nmol/kg s.c., challenge day 11, 48 hrs post-challenge, vehicle 0.876, p=0.1953
  Mean ear thickness of KLH-induced ear: 0.854±0.038 mm
[3]; 3 nmol/kg s.c., challenge day 11, 24 hrs post-challenge, vehicle 0.902, p<0.0001
  Mean ear thickness of KLH-induced ear: 0.814±0.014 mm
[3]; 3 nmol/kg s.c., challenge day 11, 48 hrs post-challenge, vehicle 0.876, p=0.0001
  Mean ear thickness of KLH-induced ear: 0.814±0.019 mm
[3]; 10 nmol/kg s.c., challenge day 11, 24 hrs post-challenge, vehicle 0.902, p<0.0001
  Mean ear thickness of KLH-induced ear: 0.796±0.043 mm
[3]; 10 nmol/kg s.c., challenge day 11, 48 hrs post-challenge, vehicle 0.876, p=0.0001
  Mean ear thickness of KLH-induced ear: 0.794±0.036 mm
[3]; 30 nmol/kg s.c., challenge day 11, 24 hrs post-challenge, vehicle 0.902, p<0.0001
  Mean ear thickness of KLH-induced ear: 0.754±0.017 mm
[3]; 30 nmol/kg s.c., challenge day 11, 48 hrs post-challenge, vehicle 0.876, p<0.0001
  Mean ear thickness of KLH-induced ear: 0.736±0.03 mm
[3]; 100 nmol/kg s.c., challenge day 11, 24 hrs post-challenge, vehicle 0.902, p<0.0001
  Mean ear thickness of KLH-induced ear: 0.751±0.009 mm
[3]; 100 nmol/kg s.c., challenge day 11, 48 hrs post-challenge, vehicle 0.876, p<0.0001
  Mean ear thickness of KLH-induced ear: 0.731±0.016 mm
[3]; [4]
  Mean ear thickness of KLH-induced ear: 0.736 mm
[3]; 24 hrs post-challenge, day 6 post-treatment, 1 nmol/kg SC
  Mean ear thickness of KLH-induced ear: 0.872 mm
[3]; 24 hrs post-challenge, day 6 post-treatment, 3 nmol/kg SC
  Mean ear thickness of KLH-induced ear: 0.814 mm
[3]; [5]
  Mean ear thickness of KLH-induced ear: 0.796 mm
[3]; 24 hrs post-challenge, day 6 post-treatment, 30 nmol/kg SC
  Mean ear thickness of KLH-induced ear: 0.754 mm
[3]; [6]
  Mean ear thickness of KLH-induced ear: 0.751 mm
[3]; [7]
  Mean ear thickness of KLH-induced ear: 0.671 mm
[3]; 48 hrs post-challenge, day 7 post-treatment, 1 nmol/kg SC
  Mean ear thickness of KLH-induced ear: 0.854 mm
[3]; 48 hrs post-challenge, day 7 post-treatment, 3 nmol/kg SC
  Mean ear thickness of KLH-induced ear: 0.814 mm
[3]; [8]
  Mean ear thickness of KLH-induced ear: 0.794 mm
[3]; 48 hrs post-challenge, day 7 post-treatment, 30 nmol/kg SC
  Mean ear thickness of KLH-induced ear: 0.736 mm
[3]; [9]
  Mean ear thickness of KLH-induced ear: 0.731 mm
[3]; KLH-induced DTH model, s.c.
  minimal dose to obtain effect: 3 nmol/kg
[3]; s.c. day 6, dose not given, challenge day 7, 24 hrs post-challenge, vehicle 0.849, p<0.0001
  Mean ear thickness of KLH-induced ear: 0.736±0.026 mm
[3]; s.c. day 6, dose not given, challenge day 7, 48 hrs post-challenge, vehicle 0.777, p<0.0001
  Mean ear thickness of KLH-induced ear: 0.671±0.022 mm

— patent publication US20260325605A1, “INHIBITORS” (Zealand Pharma A/S, priority 2022, published 2026)
